Values of other authors as cited in patent US20140023696A1, “TREATMENT FOR IDIOPATHIC PULMONARY FIBROSIS” (priority 2012, published 2014).

Tested on: patients with IPF
Settings: added to prednisone and azathioprine; 12 months of follow up

Q: Which “effect on FVC and DLCO” value does the source give for `CC(=O)N[C@@H](CS)C(=O)O` [N-acetylcysteine] here?
A: The value was “slight benefit”.
